The test relates to MV-4-11 cells. Briefly: Gene expression microarray analysis (Affymetrix PrimeView) and GSEA. The format is cell-based, human. Details: RFU PODN (11730768_x_at) / Fold change /veh PODN (11730768_x_at) / RFU LINC00158 (11744669_a_at) / Fold change /veh LINC00158 (11744669_a_at) / RFU DUSP10 (11751237_a_at) / Fold change /veh DUSP10 (11751237_a_at) / RFU ID3 (11757404_x_at) / Fold change /veh ID3 (11757404_x_at) / RFU PLEKHG5 (11737974_s_at) / Fold change /veh PLEKHG5 (11737974_s_at) / RFU LRRC4B (11730491_at) / Fold change /veh LRRC4B (11730491_at) / RFU GIMAP4 (11747438_a_at) / Fold change /veh GIMAP4 (11747438_a_at) / RFU KRT8 (11758183_x_at) / Fold change /veh KRT8 (11758183_x_at) / RFU CNN1 (11734310_a_at) / Fold change /veh CNN1 (11734310_a_at) / RFU VPS37D (11726825_at) / Fold change /veh VPS37D (11726825_at) / RFU C10orf10 (11716522_x_at) / Fold change /veh C10orf10 (11716522_x_at) / RFU KIR2DL2 /// KIR2DL4 /// KIR2DL5A /// KIR2DL5B /// KIR2DS1 /// KIR2DS2 /// KIR2DS3 /// KIR2DS4 /// KIR3DL3 /// KIR3DL3 /// KIR3DS1 (11738374_at) / Fold change /veh KIR2DL2 /// KIR2DL4 /// KIR2DL5A /// KIR2DL5B /// KIR2DS1 /// KIR2DS2 /// KIR2DS3 /// KIR2DS4 /// KIR3DL3 /// KIR3DL3 /// KIR3DS1 (11738374_at) / RFU C1QL1 (11718748_at) / Fold change /veh C1QL1 (11718748_at) / RFU TMPRSS4 (11747572_a_at) / Fold change /veh TMPRSS4 (11747572_a_at) / RFU HAMP (11756126_x_at) / Fold change /veh HAMP (11756126_x_at) / RFU RNFT2 (11725882_a_at) / Fold change /veh RNFT2 (11725882_a_at) / RFU NR4A2 (11747474_a_at) / Fold change /veh NR4A2 (11747474_a_at) / RFU ABCC12 (11746883_a_at) / Fold change /veh ABCC12 (11746883_a_at) / RFU TMEM136 (11760407_x_at) / Fold change /veh TMEM136 (11760407_x_at) / RFU CLDN22 /// WWC2 (11732394_at) / Fold change /veh CLDN22 /// WWC2 (11732394_at) / RFU HLA-DPB1 (11760878_x_at) / Fold change /veh HLA-DPB1 (11760878_x_at) / RFU SPINT1 (11716480_a_at) / Fold change /veh SPINT1 (11716480_a_at) / RFU GAP43 (11754022_s_at) / Fold change /veh GAP43 (11754022_s_at) / RFU A4GNT (11735810_at) / Fold change /veh A4GNT (11735810_at) / RFU PRB3 (11715151_x_at) / Fold change /veh PRB3 (11715151_x_at) / RFU TUBB4B (11761932_at) / Fold change /veh TUBB4B (11761932_at) / RFU CAPN14 (11732068_a_at) / Fold change /veh CAPN14 (11732068_a_at) / RFU TMCC2 (11721928_a_at) / Fold change /veh TMCC2 (11721928_a_at) / RFU IRGQ (11745062_a_at) / Fold change /veh IRGQ (11745062_a_at) / RFU FAM174B (11720279_a_at) / Fold change /veh FAM174B (11720279_a_at) / RFU TMPRSS4 (11748680_a_at) / Fold change /veh TMPRSS4 (11748680_a_at) / RFU FAM212B (11763350_a_at) / Fold change /veh FAM212B (11763350_a_at) / RFU PLEKHG5 (11743358_a_at) / Fold change /veh PLEKHG5 (11743358_a_at) / RFU ZSCAN30 (11745921_a_at) / Fold change /veh ZSCAN30 (11745921_a_at) / RFU CMKLR1 (11741424_a_at) / Fold change /veh CMKLR1 (11741424_a_at) / RFU LOC101060620 /// MAPK8IP1 (11723275_at) / Fold change /veh LOC101060620 /// MAPK8IP1 (11723275_at) / RFU SPTSSB (11747773_x_at) / Fold change /veh SPTSSB (11747773_x_at) / RFU PRSS12 (11739890_at) / Fold change /veh PRSS12 (11739890_at) / RFU BIN1 (11741810_x_at) / Fold change /veh BIN1 (11741810_x_at) / RFU WNT11 (11732464_a_at) / Fold change /veh WNT11 (11732464_a_at) / RFU C10orf10 (11716521_a_at) / Fold change /veh C10orf10 (11716521_a_at) / RFU C5orf56 (11738089_at) / Fold change /veh C5orf56 (11738089_at) / RFU CYB561 (11721691_x_at) / Fold change /veh CYB561 (11721691_x_at) / RFU ANKRD19P (11752326_a_at) / Fold change /veh ANKRD19P (11752326_a_at) / RFU OR2T12 /// OR2T33 /// OR2T8 (11738714_s_at) / Fold change /veh OR2T12 /// OR2T33 /// OR2T8 (11738714_s_at) / RFU VCAN (11748164_a_at) / Fold change /veh VCAN (11748164_a_at) / RFU JSRP1 (11732532_at) / Fold change /veh JSRP1 (11732532_at) / RFU KRTAP10-11 (11738290_x_at) / Fold change /veh KRTAP10-11 (11738290_x_at) / RFU MYO3A (11730013_a_at) / Fold change /veh MYO3A (11730013_a_at) / RFU EBF3 (11725865_a_at) / Fold change /veh EBF3 (11725865_a_at) / RFU CAMK2N1 (11719241_x_at) / Fold change /veh CAMK2N1 (11719241_x_at) / RFU C5orf56 (11738088_a_at) / Fold change /veh C5orf56 (11738088_a_at) / RFU OLFML3 (11715873_a_at) / Fold change /veh OLFML3 (11715873_a_at) / RFU LOC100653217 /// NTM (11731650_a_at) / Fold change /veh LOC100653217 /// NTM (11731650_a_at) / RFU MAPK11 (11762145_a_at) / Fold change /veh MAPK11 (11762145_a_at) / RFU FIZ1 (11724087_x_at) / Fold change /veh FIZ1 (11724087_x_at) / RFU OASL (11726364_x_at) / Fold change /veh OASL (11726364_x_at) / RFU SOX15 (11748057_x_at) / Fold change /veh SOX15 (11748057_x_at) / RFU CD79A (11719716_a_at) / Fold change /veh CD79A (11719716_a_at) / RFU HIST1H1D (11736915_at) / Fold change /veh HIST1H1D (11736915_at) / RFU CASKIN2 (11723855_a_at) / Fold change /veh CASKIN2 (11723855_a_at) / RFU LOC730098 (11760151_x_at) / Fold change /veh LOC730098 (11760151_x_at) / RFU OR4N2 (11742367_at) / Fold change /veh OR4N2 (11742367_at) / RFU PRRT2 (11749266_a_at) / Fold change /veh PRRT2 (11749266_a_at) / RFU SNX32 (11753110_a_at) / Fold change /veh SNX32 (11753110_a_at) / RFU CDHR5 (11726645_a_at) / Fold change /veh CDHR5 (11726645_a_at) / RFU RCAN1 (11760418_a_at) / Fold change /veh RCAN1 (11760418_a_at) / RFU FAM167A (11723789_a_at) / Fold change /veh FAM167A (11723789_a_at) / RFU FAM26E (11764081_at) / Fold change /veh FAM26E (11764081_at) / RFU ISYNA1 (11749810_s_at) / Fold change /veh ISYNA1 (11749810_s_at) / RFU ACY1 (11761880_at) / Fold change /veh ACY1 (11761880_at) / RFU 11764098_at / Fold change /veh 11764098_at / RFU SAMD14 (11745864_x_at) / Fold change /veh SAMD14 (11745864_x_at) / RFU NPB (11741838_a_at) / Fold change /veh NPB (11741838_a_at) / RFU TMPRSS6 (11731388_a_at) / Fold change /veh TMPRSS6 (11731388_a_at) / RFU KRTAP10-2 (11738614_at) / Fold change /veh KRTAP10-2 (11738614_at) / RFU ARHGAP8 /// PRR5-ARHGAP8 (11727945_x_at) / Fold change /veh ARHGAP8 /// PRR5-ARHGAP8 (11727945_x_at) / RFU KRTAP5-7 /// NADSYN1 (11734609_at) / Fold change /veh KRTAP5-7 /// NADSYN1 (11734609_at) / RFU RASL12 (11751679_a_at) / Fold change /veh RASL12 (11751679_a_at) / RFU CDKN2B (11736163_a_at) / Fold change /veh CDKN2B (11736163_a_at) / RFU PRF1 (11729649_at) / Fold change /veh PRF1 (11729649_at) / RFU, ZNF638 /// ZNF638-IT1 / Fold change vs veh, ZNF638 /// ZNF638-IT1 / RFU, PANK3 / Fold change vs veh, PANK3 / RFU, SH3YL1 / Fold change vs veh, SH3YL1 / RFU, ZEB2 / Fold change vs veh, ZEB2 / RFU, NRIP1 / Fold change vs veh, NRIP1 / RFU, PTTG1IP / Fold change vs veh, PTTG1IP / RFU, CAPN2 / Fold change vs veh, CAPN2 / RFU, MED14 / Fold change vs veh, MED14 / RFU, SNORA58 / Fold change vs veh, SNORA58 / RFU, C1orf63 / Fold change vs veh, C1orf63 / RFU, LRRFIP1 / Fold change vs veh, LRRFIP1 / RFU, NDUFAF7 / Fold change vs veh, NDUFAF7 / RFU, SLC12A2 / Fold change vs veh, SLC12A2 / RFU, IBTK / Fold change vs veh, IBTK / RFU, ESF1 / Fold change vs veh, ESF1 / Fold change vs veh, TMEM50B / RFU, TAOK1 / Fold change vs veh, TAOK1 / RFU, ACBD3 / Fold change vs veh, ACBD3 / RFU, TMA16 / Fold change vs veh, TMA16 / RFU, RWDD3 / Fold change vs veh, RWDD3 / RFU, BCAT1 / Fold change vs veh, BCAT1 / RFU, EDEM3 / Fold change vs veh, EDEM3 / RFU, TMEM33 / Fold change vs veh, TMEM33 / RFU, WDR75 / Fold change vs veh, WDR75 / RFU, AHCTF1 / Fold change vs veh, AHCTF1 / RFU, TFRC / Fold change vs veh, TFRC / RFU, ZDHHC17 / Fold change vs veh, ZDHHC17 / RFU, NOM1 / Fold change vs veh, NOM1 / RFU, ARL8B / Fold change vs veh, ARL8B / RFU, ZBTB11 / Fold change vs veh, ZBTB11 / RFU, TAMM41 / Fold change vs veh, TAMM41 / RFU, KIAA1704 /// LOC100996395 / Fold change vs veh, KIAA1704 /// LOC100996395 / RFU, ING1 / Fold change vs veh, ING1 / RFU, TRMT61B / Fold change vs veh, TRMT61B / RFU, FUBP3 / Fold change vs veh, FUBP3 / RFU, TP53 / Fold change vs veh, TP53 / RFU, TNKS2 / Fold change vs veh, TNKS2 / RFU, ZFP14 / Fold change vs veh, ZFP14 / RFU, ACTR2 / Fold change vs veh, ACTR2 / RFU, PPP3R1 / Fold change vs veh, PPP3R1 / RFU, PIK3R1 / Fold change vs veh, PIK3R1 / RFU, HNRNPA1 / Fold change vs veh, HNRNPA1 / RFU, RNF170 / Fold change vs veh, RNF170 / RFU, ZNF28 / Fold change vs veh, ZNF28 / RFU, RNGTT / Fold change vs veh, RNGTT / RFU, OGT / Fold change vs veh, OGT / RFU, BRD1 / Fold change vs veh, BRD1 / RFU, MARS / Fold change vs veh, MARS / RFU, ZNF655 / Fold change vs veh, ZNF655 / RFU, FAHD1 / Fold change vs veh, FAHD1 / RFU, BDP1 / Fold change vs veh, BDP1 / RFU, LRRCC1 / Fold change vs veh, LRRCC1 / RFU, ARID1A / Fold change vs veh, ARID1A / RFU, ZNF146 / Fold change vs veh, ZNF146 / RFU, ZNF330 / Fold change vs veh, ZNF330 / RFU, GPN3 / Fold change vs veh, GPN3 / RFU, C9orf123 / Fold change vs veh, C9orf123 / RFU, N4BP2L2 / Fold change vs veh, N4BP2L2 / RFU, ARFIP1 / Fold change vs veh, ARFIP1 / RFU, FAM179B / Fold change vs veh, FAM179B / RFU, BCL10 / Fold change vs veh, BCL10 / RFU, UHRF1BP1L / Fold change vs veh, UHRF1BP1L / RFU, BET1 / Fold change vs veh, BET1 / RFU, CNOT2 / Fold change vs veh, CNOT2 / RFU, ZNF268 / Fold change vs veh, ZNF268 / Fold change vs veh, ZNF507 / RFU, DGCR2 / Fold change vs veh, DGCR2 / RFU, WDSUB1 / Fold change vs veh, WDSUB1 / Fold change vs veh, HSP90B1 /// MIR3652 / RFU, ADSS / Fold change vs veh, ADSS / RFU, GK / Fold change vs veh, GK / RFU, ZNF148 / Fold change vs veh, ZNF148 / RFU, TAF9 / Fold change vs veh, TAF9 / RFU, SLC1A5 / Fold change vs veh, SLC1A5 / RFU, SLMO2 / Fold change vs veh, SLMO2 / RFU, ABCC4 / Fold change vs veh, ABCC4 / RFU, LOC101060439 /// RAP1B / Fold change vs veh, LOC101060439 /// RAP1B / RFU, RFX7 / Fold change vs veh, RFX7 / RFU, GTPBP10 / Fold change vs veh, GTPBP10 / RFU, CNEP1R1 / Fold change vs veh, CNEP1R1 / RFU, BIVM-ERCC5 /// ERCC5 / Fold change vs veh, BIVM-ERCC5 /// ERCC5 / RFU, ILF3 / Fold change vs veh, ILF3 / RFU 11762660_at / Fold change /veh 11762660_at / RFU VCAN (11757783_s_at) / Fold change /veh VCAN (11757783_s_at) / RFU DDX43 (11728927_at) / Fold change /veh DDX43 (11728927_at) / RFU KRT8 (11758188_x_at) / Fold change /veh KRT8 (11758188_x_at) / RFU NKD1 (11759106_at) / Fold change /veh NKD1 (11759106_at) / RFU SRD5A1 (11742802_a_at) / Fold change /veh SRD5A1 (11742802_a_at) / RFU TPSAB1 /// TPSB2 (11721975_s_at) / Fold change /veh TPSAB1 /// TPSB2 (11721975_s_at) / RFU GSTM3 (11746129_a_at) / Fold change /veh GSTM3 (11746129_a_at) / RFU IL23R (11737362_x_at) / Fold change /veh IL23R (11737362_x_at) / RFU TMEM51 (11727254_a_at) / Fold change /veh TMEM51 (11727254_a_at) / RFU PIWIL2 (11732686_x_at) / Fold change /veh PIWIL2 (11732686_x_at) / RFU ORM1 (11744905_x_at) / Fold change /veh ORM1 (11744905_x_at) / RFU CCDC152 (11743942_at) / Fold change /veh CCDC152 (11743942_at) / RFU ECM1 (11717891_a_at) / Fold change /veh ECM1 (11717891_a_at) / RFU IL23R (11748794_a_at) / Fold change /veh IL23R (11748794_a_at) / RFU TNFAIP8L3 (11732012_x_at) / Fold change /veh TNFAIP8L3 (11732012_x_at) / RFU MBOAT4 (11741988_at) / Fold change /veh MBOAT4 (11741988_at) / RFU 11764193_at / Fold change /veh 11764193_at / RFU TMEM53 (11763286_at) / Fold change /veh TMEM53 (11763286_at) / RFU MAGEB2 (11727129_at) / Fold change /veh MAGEB2 (11727129_at) / RFU TMEM200A (11744735_a_at) / Fold change /veh TMEM200A (11744735_a_at) / RFU CCDC152 (11751479_a_at) / Fold change /veh CCDC152 (11751479_a_at) / RFU FAM211A (11726209_a_at) / Fold change /veh FAM211A (11726209_a_at) / RFU RGS16 (11746705_a_at) / Fold change /veh RGS16 (11746705_a_at) / RFU VCAN (11755009_s_at) / Fold change /veh VCAN (11755009_s_at) / RFU RHOB (11743442_s_at) / Fold change /veh RHOB (11743442_s_at) / RFU RGS16 (11720943_a_at) / Fold change /veh RGS16 (11720943_a_at) / RFU RGS16 (11720944_at) / Fold change /veh RGS16 (11720944_at) / RFU, VPS4B / Fold change vs veh, VPS4B / RFU, CREB1 / Fold change vs veh, CREB1 / RFU, DNAJC13 / Fold change vs veh, DNAJC13 / RFU, GNAQ / Fold change vs veh, GNAQ / RFU, CDK5R1 / Fold change vs veh, CDK5R1 / RFU, ZRANB3 / Fold change vs veh, ZRANB3 / RFU, CUL4A / Fold change vs veh, CUL4A / RFU, CCNY / Fold change vs veh, CCNY / RFU, UFL1 / Fold change vs veh, UFL1 / RFU, COG3 / Fold change vs veh, COG3 / RFU, DIAPH2 / Fold change vs veh, DIAPH2 / RFU, SKA2 / Fold change vs veh, SKA2 / RFU, AFF3 / Fold change vs veh, AFF3 / RFU, LMF1 / Fold change vs veh, LMF1 / RFU, IPO11 / Fold change vs veh, IPO11 / RFU, DFFB / Fold change vs veh, DFFB / RFU, FOXP1 / Fold change vs veh, FOXP1 / RFU, CARD8 / Fold change vs veh, CARD8 / RFU, STRN3 / Fold change vs veh, STRN3 / RFU, ADK / Fold change vs veh, ADK / RFU, RASSF2 / Fold change vs veh, RASSF2 / RFU, WIPF1 / Fold change vs veh, WIPF1 / RFU, LARP1B / Fold change vs veh, LARP1B / RFU, RASA1 / Fold change vs veh, RASA1 / RFU, RB1 / Fold change vs veh, RB1 / RFU, PPFIA1 / Fold change vs veh, PPFIA1 / RFU, MAT2A / Fold change vs veh, MAT2A / RFU, CCT5 / Fold change vs veh, CCT5 / RFU, WDR92 / Fold change vs veh, WDR92 / RFU, CUX1 / Fold change vs veh, CUX1 / RFU, TTC7A / Fold change vs veh, TTC7A / RFU, TMEM135 / Fold change vs veh, TMEM135 / RFU, DEPTOR / Fold change vs veh, DEPTOR / RFU, CPM / Fold change vs veh, CPM / RFU, DNAJB6 / Fold change vs veh, DNAJB6 / RFU, CACNA2D3 / Fold change vs veh, CACNA2D3 / RFU, DTX4 / Fold change vs veh, DTX4 / RFU, TFCP2 / Fold change vs veh, TFCP2 / RFU, GMCL1 /// GMCL1P1 / Fold change vs veh, GMCL1 /// GMCL1P1 / RFU, AEBP2 / Fold change vs veh, AEBP2 / RFU, SNHG1 /// SNORD22 /// SNORD25 /// SNORD26 /// SNORD27 /// SNORD28 /// SNORD29 /// SNORD31 / Fold change vs veh, SNHG1 /// SNORD22 /// SNORD25 /// SNORD26 /// SNORD27 /// SNORD28 /// SNORD29 /// SNORD31 / Fold change (Aza/veh), C12orf56 (ProbeSet 11735607_a_at) / Fold change (ACY-1035/veh), C12orf56 (ProbeSet 11735607_a_at) / Fold change (Aza/veh), FGFR1OP (ProbeSet 11751329_s_at) / Fold change (ACY-1035/veh), FGFR1OP (ProbeSet 11751329_s_at) / Fold change (Aza/veh), VPS36 (ProbeSet 11739960_a_at) / Fold change (ACY-1035/veh), VPS36 (ProbeSet 11739960_a_at) / RFU SYPL1 (11715823_x_at) / Fold change /veh SYPL1 (11715823_x_at) / RFU IGFBP7 (11715501_s_at) / Fold change /veh IGFBP7 (11715501_s_at) / RFU REEP3 (11722064_at) / Fold change /veh REEP3 (11722064_at) / RFU IGLL1 (11728026_x_at) / Fold change /veh IGLL1 (11728026_x_at): dose or concentration left out as unconfirmed. To be noted: MV-4-11 cells, 48 hours.

Take `Nc1ncn([C@@H]2O[C@H](CO)[C@@H](O)[C@H]2O)c(=O)n1` [azacitidine]: the “Fold change /veh LOC100653217 /// NTM (11731650_a_at)” value stood at 1.16.

(Values after paper PMC5218480 (PLoS ONE, 2017).)
